From patent publication US9428813B2, “DNA methylation analysis for the diagnosis, prognosis and treatment of adrenal neoplasms” (The United States of America, as Represented by the …, priority 2012, dated 2016)

Test system: NCI-H295R cells
Assay: Gene expression in decitabine-treated NCI-H295R adrenocortical cells
Type: cell-based
Settings: human adrenocortical cells; including H19, S100A10, HOPX, ERBB3 and RUNX2
Description: Studies were performed on human adrenocortical cells and the effect of decitabine on gene-expression of HTN3, H19, S100A10, FAM129A, HOPX, TAC1, UCHL1, ERBB3, BEGNT5, RUNX2, GJA3, and BGN was evaluated. […] As such, these studies indicate that demethylating agents are agents capable of regulating malignant adrenocortical tumor-related molecules and can be used to treat ACC.

Structure (SMILES): Nc1ncn([C@H]2C[C@H](O)[C@@H](CO)O2)c(=O)n1 [Decitabine, 5-azadeoxycytidine]
- Effect on expression of malignant adrenocortical tumor-related molecules: significantly alter the expression
